Data on twelve molecules can be found in PubChem BioAssay (NCI).

Holding throughout (assay): DTP human tumour cell line panel, 48 h
Assay [1] has as its system MDA-MB-231 breast.
Assay [2] has as its system HOP-92 NSCLC.
The subject of assay [3] is UO-31 renal.
Assay [4] relates to RXF 393 renal.
The subject of assay [5] is 786-0 renal.
Assay [6] relates to K-562 leukemia.
Assay [7] deals with ACHN renal.
Assay [8] relates to MDA-N.
For assay [9], the system named is HOP-62 NSCLC.
The test system of assay [10] is NCI/ADR-RES ovarian.
The test system of assay [11] is OVCAR-5 ovarian.

A word on the TGI: it is the concentration at which net growth stops. A lower TGI goes with more potent growth arrest.

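How tested: cells in 96-well plates exposed to compound for 48 hours at five concentrations. At the TGI there is no net growth.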

Take `O=C(Nc1ccccc1)N1CCN(C(=O)Nc2ccccc2)C1=S`: the TGI in assay [1] was over 100 µM; in [2], 63.5 µM; in assay [3], 60.7 µM; in [4], 43.6 µM; in assay [5], over 100 µM; in assay [6], over 100 µM. Further, the TGI in assay [7] is over 100 µM; in assay [8], over 100 µM; in [9] it was 67.9 µM; in [10], over 100 µM.
As for `O=C(O)C(Cc1ccccc1)NCc1c(O)ccc2c(-c3ccccc3)cc(=O)oc12` (stereo not drawn), the TGI in assay [1], in assay [2], in [3], in [4], in assay [5] and in assay [11] was over 100 µM each time. Moreover, the TGI in assay [6], in assay [7], in assay [8], in [9] and in assay [10] was over 100 µM in each case.
On to `C[C@]12CC[C@H]3[C@@H](CC=C4C[C@@H](N5CCCC5)CC[C@@]43C)[C@@H]1C[C@H](N1CCCCC1)[C@@H]2O`, for which the concentration for total growth inhibition (TGI) in assay [1], in [2], in [3], in [4], in assay [5] and in assay [11] was over 100 µM each time. Also, the TGI in [6] is 49.6 µM; in assay [7], over 100 µM; in [8] it was over 100 µM; in [9] it was over 100 µM; in assay [10] it was over 100 µM.
For the molecule `COC1CC(C)(NC(=O)C(F)(F)F)C2OC(c3ccccc3)OCC2O1` (stereo not drawn), the TGI in [1], in assay [2], in assay [3], in [4], in [5] and in assay [11] was over 100 µM throughout. Moreover, the TGI in [6], in assay [7], in assay [8], in assay [9] and in assay [10] was over 100 µM in each case.
As for `Cc1ccccc1NC(=O)O/N=C(\Cl)C(C)C`, the TGI in assay [1] stood at 32.7 µM; in assay [2], 4.08 µM; in [3] it was 31.3 µM; in assay [4], 25.1 µM; in [5], 3.45 µM; in [11], 40.5 µM. For the same molecule, the TGI in [6] was 5.51 µM; in [7], 3.13 µM; in assay [8], 8.58 µM; in assay [9], 33.4 µM; in [10] it was 33.7 µM.
On to `COC(=N)C1(C#N)NC(c2ccsc2)C(C#N)(C#N)NC1c1ccsc1` (stereo not drawn), for which the TGI in assay [1], in [2], in [3], in [4], in [5] and in [11] was over 100 µM in each case. For the same molecule, the TGI in assay [6], in [7], in [8], in assay [9] and in assay [10] was over 100 µM in each case.
As to `COc1cc(CCNC2=CC(=O)c3nc[nH]c3C2=O)ccc1O`, the TGI in [1] is over 100 µM; in [2], 73.3 µM; in [3], over 100 µM; in assay [4] it was over 100 µM; in [5], over 100 µM; in [11] it was 35.8 µM. The TGI was over 100 µM in assay [6]; over 100 µM in [7]; 32.5 µM in [8]; over 100 µM in [9]; over 100 µM in assay [10].
As to `COP(=O)(OC)OCN(C)CC/C=C(\C)CC/C=C(\C)CCC=C(C)C`, the TGI worked out at 56.3 µM in assay [1]; 34.8 µM in assay [2]; 28.3 µM in assay [3]; 49.1 µM in assay [4]; 31.3 µM in assay [5]; 39.1 µM in [11]. Moreover, the TGI in [6] was found to be 20.6 µM; in [7] it was 64.2 µM; in [8], 29.3 µM; in assay [9], 29.7 µM; in assay [10], 30.5 µM.
For the molecule `COC(=O)C1=C(CCCCO[Si](C)(C)C(C)(C)C)NC(=O)N2[C@H](CCOCc3ccccc3)CC[C@@H]12`, the TGI in assay [1], in assay [2], in assay [3], in assay [5], in [11] and in assay [6] was over 100 µM in each case. For the same molecule, the TGI in [7], in assay [8], in assay [9] and in [10] was over 100 µM throughout.
Regarding `O=c1[nH]c(=O)n(COC(CO)CO)cc1-c1ccccc1`, the total growth inhibition concentration (TGI) in assay [1], in assay [2], in assay [3], in assay [5], in assay [11] and in assay [6] was over 100 µM each time. Besides, the TGI in [7], in [8], in [9] and in assay [10] was over 100 µM each time.
Regarding `O=[N+]([O-])c1ccc(-n2nc3ccc4nonc4c3n2)cc1`, the TGI in assay [1] is over 100 µM; in assay [2] it was 65 µM; in assay [3], 62.9 µM; in assay [5], 89.4 µM; in assay [11], over 100 µM; in assay [6] it was over 100 µM. For the same molecule, the TGI is over 100 µM in [7], over 100 µM in assay [8], 44.7 µM in [9] and over 100 µM in [10].
On to `Nc1[nH]c(=O)nc2c1ncn2C1OC(CO)C(O)C1O` (stereo not drawn), for which the TGI in [1], in assay [2], in assay [3], in assay [4], in [5] and in assay [11] was over 100 µM each time. For the same molecule, the TGI is over 100 µM in assay [6]; over 100 µM in [7]; over 100 µM in assay [8]; over 100 µM in [9]; 51.1 µM in assay [10].
